The supplement of paper PMC11208160

Experiment: recombinant UMI read abundance after kanamycin selection (control-corrected) (log10(CPM+1)); higher = more efficient recombination; extreme values may be limits of the assay; sequences stand for … in AGTGCAGAGAAAATCGGCCAGTTTTCTCTGCCTGCAGTCCGCATGCCGTGGGACCCCTTGGGTTCTAACCTGTTGCCTAGATTTATGCAGCGGACTGCCTTTCTCCCAAAGTGATAAACCGG…AGGTTGGTTTCACT; site = the 11-nt donor
Outline: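 Sequenced counts of recombinant UMIs were turned into CPM, averaged across replicates and scaled with control-derived factors. The reported figure is log10(CPM+1). Those UMIs, each 12 nt long, tagged donor and donor-binding-loop pairs on a plasmid with a promoterless kanamycin gene, screened as a pool in Escherichia coli with IPTG (0.07 mM) plus kanamycin or without selection.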
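Note: IS621 bridge recombinase in Escherichia coli cells against a fixed T5 target plasmid.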

Sequence	recombinant UMI read abundance (log10)
CAAGAAGCATGGACCGGTTTTCCCGGTAATCCGTATTTGCT (site CAAGCAGCTAG)	0
CAAGAAGCATGGACCGGTTTTCCCGGTAATCCGTATTTGCT (site CAAGGAGCTAG)	1.87
CAAGAAGCATGGACCGGTTTTCCCGGTAATCCGTATTTGCT (site CAAGTAGCTAG)	1.17
CAAGAGTCATGGACCGGTTTTCCCGGTAATCCGTATTTGGT (site CAAGAGTCTAC)	2.79
CAAGATTCATGGACCGGTTTTCCCGGTAATCCGTATTTGGG (site CAAGATTCTCC)	0.89
CAAGCACCATGGACCGGTTTTCCCGGTAATCCGTATTTGCT (site CAAGCAACTAG)	0
CAAGCACCATGGACCGGTTTTCCCGGTAATCCGTATTTGCT (site CAAGCACCTAG)	0.47
CAAGCACCATGGACCGGTTTTCCCGGTAATCCGTATTTGCT (site CAAGCAGCTAG)	0.0135
CAAGCACCATGGACCGGTTTTCCCGGTAATCCGTATTTGCT (site CAAGCATCTAG)	0.0059
CAAGCAGCATGGACCGGTTTTCCCGGTAATCCGTATTTGCC (site CAAGCAGCTAG)	1.86
CAAGCAGCATGGACCGGTTTTCCCGGTAATCCGTATTTGCC (site CAAGCAGCTCG)	1.16
CAAGCAGCATGGACCGGTTTTCCCGGTAATCCGTATTTGCC (site CAAGCAGCTGG)	2.75
CAAGCAGCATGGACCGGTTTTCCCGGTAATCCGTATTTGCC (site CAAGCAGCTTG)	1.94
CAAGCATCATGGACCGGTTTTCCCGGTAATCCGTATTTGCT (site CAAGCAACTAG)	0
CAAGCATCATGGACCGGTTTTCCCGGTAATCCGTATTTGCT (site CAAGCACCTAG)	0
CAAGCATCATGGACCGGTTTTCCCGGTAATCCGTATTTGCT (site CAAGCAGCTAG)	0
CAAGCATCATGGACCGGTTTTCCCGGTAATCCGTATTTGCT (site CAAGCATCTAG)	2.05
CAAGCCTCATGGACCGGTTTTCCCGGTAATCCGTATTTGTC (site CAAGCCTCTGA)	3.3
CAAGCGCCATGGACCGGTTTTCCCGGTAATCCGTATTTGTT (site CAAGCGCCTAA)	2.13

Sequence	recombinant UMI read abundance (log10)
CAAGCGCCATGGACCGGTTTTCCCGGTAATCCGTATTTGTT (site CAAGCGCCTCA)	0.0113
CAAGCGCCATGGACCGGTTTTCCCGGTAATCCGTATTTGTT (site CAAGCGCCTGA)	1.75
CAAGCGCCATGGACCGGTTTTCCCGGTAATCCGTATTTGTT (site CAAGCGCCTTA)	0.663
CAAGCTGCATGGACCGGTTTTCCCGGTAATCCGTATTTGCT (site CAAGCAGCTAG)	0.397
CAAGCTGCATGGACCGGTTTTCCCGGTAATCCGTATTTGCT (site CAAGCCGCTAG)	0.95
CAAGCTGCATGGACCGGTTTTCCCGGTAATCCGTATTTGCT (site CAAGCGGCTAG)	0
CAAGCTGCATGGACCGGTTTTCCCGGTAATCCGTATTTGCT (site CAAGCTGCTAG)	2.42
CAAGGAGCATGGACCGGTTTTCCCGGTAATCCGTATTTGTC (site CAAGGAGCTGA)	3.18
CAAGTCACATGGACCGGTTTTCCCGGTAATCCGTATTTGAG (site CAAGTCACTCA)	1.48
CAAGTCACATGGACCGGTTTTCCCGGTAATCCGTATTTGAG (site CAAGTCACTCC)	0.563
CAAGTCACATGGACCGGTTTTCCCGGTAATCCGTATTTGAG (site CAAGTCACTCG)	1.1
CAAGTCACATGGACCGGTTTTCCCGGTAATCCGTATTTGAG (site CAAGTCACTCT)	1.82
CAAGTCCCATGGACCGGTTTTCCCGGTAATCCGTATTTGCT (site CAAATCCCTAG)	0
CAAGTCCCATGGACCGGTTTTCCCGGTAATCCGTATTTGCT (site CAACTCCCTAG)	0.843
CAAGTCCCATGGACCGGTTTTCCCGGTAATCCGTATTTGCT (site CAAGTCCCTAG)	1.92
CAAGTCCCATGGACCGGTTTTCCCGGTAATCCGTATTTGCT (site CAATTCCCTAG)	0
CAAGTCGCATGGACCGGTTTTCCCGGTAATCCGTATTTGGG (site CAAGTCACTCC)	0.0586
CAAGTCGCATGGACCGGTTTTCCCGGTAATCCGTATTTGGG (site CAAGTCCCTCC)	0.554
